Experiments:
[1] = biological target: T1, Prostaglandin G/H synthase 1 (Rattus norvegicus, UniProt Q63921); assay type: functional
T1 sequence (Q63921 whole entry): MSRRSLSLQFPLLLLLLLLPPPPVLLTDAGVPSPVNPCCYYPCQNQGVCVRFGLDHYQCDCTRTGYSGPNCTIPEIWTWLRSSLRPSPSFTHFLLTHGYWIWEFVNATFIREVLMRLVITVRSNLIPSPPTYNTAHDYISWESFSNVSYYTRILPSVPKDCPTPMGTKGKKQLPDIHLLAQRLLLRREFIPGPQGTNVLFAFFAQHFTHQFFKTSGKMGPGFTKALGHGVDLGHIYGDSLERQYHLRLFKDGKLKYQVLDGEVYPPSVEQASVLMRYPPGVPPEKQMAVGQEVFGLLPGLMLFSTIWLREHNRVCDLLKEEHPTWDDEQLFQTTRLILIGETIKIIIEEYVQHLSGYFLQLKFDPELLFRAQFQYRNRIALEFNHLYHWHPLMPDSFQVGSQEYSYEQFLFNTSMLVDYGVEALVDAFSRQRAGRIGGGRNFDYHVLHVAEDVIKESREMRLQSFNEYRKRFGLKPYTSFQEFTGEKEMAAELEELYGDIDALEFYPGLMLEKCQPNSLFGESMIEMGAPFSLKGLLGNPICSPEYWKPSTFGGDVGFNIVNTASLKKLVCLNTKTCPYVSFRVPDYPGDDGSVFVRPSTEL

[2] = biological target: T2, Alpha-1A adrenergic receptor (Homo sapiens, UniProt P35348); assay type: functional, cell-based
T2 sequence (P35348 whole entry): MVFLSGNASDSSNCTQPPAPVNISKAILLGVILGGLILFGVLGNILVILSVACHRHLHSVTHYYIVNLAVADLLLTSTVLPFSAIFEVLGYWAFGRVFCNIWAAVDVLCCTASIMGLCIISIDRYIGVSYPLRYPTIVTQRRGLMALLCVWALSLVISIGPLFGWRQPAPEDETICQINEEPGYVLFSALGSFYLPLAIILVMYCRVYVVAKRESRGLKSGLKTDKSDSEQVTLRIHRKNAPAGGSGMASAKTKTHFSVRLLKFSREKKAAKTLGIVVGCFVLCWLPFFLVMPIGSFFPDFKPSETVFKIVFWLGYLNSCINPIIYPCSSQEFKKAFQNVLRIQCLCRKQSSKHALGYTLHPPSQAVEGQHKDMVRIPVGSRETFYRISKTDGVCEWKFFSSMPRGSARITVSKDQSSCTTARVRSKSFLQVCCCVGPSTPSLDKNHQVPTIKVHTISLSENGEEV

D(3) dopamine receptor = D(3) dopamine receptor (Homo sapiens, UniProt P35462)
Chain of D(3) dopamine receptor (P35462 whole entry): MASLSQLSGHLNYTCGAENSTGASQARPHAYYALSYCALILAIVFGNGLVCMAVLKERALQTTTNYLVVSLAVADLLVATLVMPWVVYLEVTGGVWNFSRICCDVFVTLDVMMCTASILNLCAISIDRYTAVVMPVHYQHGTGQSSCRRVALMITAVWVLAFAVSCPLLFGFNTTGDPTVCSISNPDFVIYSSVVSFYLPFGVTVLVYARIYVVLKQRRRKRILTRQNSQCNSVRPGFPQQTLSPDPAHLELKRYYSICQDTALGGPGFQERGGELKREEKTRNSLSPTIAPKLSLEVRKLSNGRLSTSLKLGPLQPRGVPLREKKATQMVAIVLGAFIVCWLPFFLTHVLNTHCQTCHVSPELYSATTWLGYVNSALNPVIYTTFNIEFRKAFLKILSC

Prothrombin = Prothrombin (Homo sapiens, UniProt P00734); assay type: functional
[3] = biological target: Gamma-aminobutyric acid receptor subunit alpha-1/alpha-2/beta-2/gamma-2 (Homo sapiens, UniProt P14867+P18507+P47869+P47870); assay type: protein-complex assay
Chain of Gamma-aminobutyric acid receptor subunit alpha-1/alpha-2/beta-2/gamma-2 (P14867 whole entry): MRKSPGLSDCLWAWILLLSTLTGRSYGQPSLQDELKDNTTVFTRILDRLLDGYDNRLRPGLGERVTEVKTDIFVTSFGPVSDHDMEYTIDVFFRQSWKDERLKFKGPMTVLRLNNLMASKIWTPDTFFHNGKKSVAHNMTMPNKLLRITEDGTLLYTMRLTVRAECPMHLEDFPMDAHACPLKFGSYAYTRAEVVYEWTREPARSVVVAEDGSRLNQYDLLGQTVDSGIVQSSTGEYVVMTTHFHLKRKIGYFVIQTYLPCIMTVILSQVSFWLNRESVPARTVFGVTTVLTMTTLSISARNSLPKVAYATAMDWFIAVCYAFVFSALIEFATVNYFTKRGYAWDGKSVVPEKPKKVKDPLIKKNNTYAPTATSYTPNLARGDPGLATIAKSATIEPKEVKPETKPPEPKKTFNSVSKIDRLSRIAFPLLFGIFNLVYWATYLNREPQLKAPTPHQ
Chain of Gamma-aminobutyric acid receptor subunit alpha-1/alpha-2/beta-2/gamma-2 (P47870 whole entry): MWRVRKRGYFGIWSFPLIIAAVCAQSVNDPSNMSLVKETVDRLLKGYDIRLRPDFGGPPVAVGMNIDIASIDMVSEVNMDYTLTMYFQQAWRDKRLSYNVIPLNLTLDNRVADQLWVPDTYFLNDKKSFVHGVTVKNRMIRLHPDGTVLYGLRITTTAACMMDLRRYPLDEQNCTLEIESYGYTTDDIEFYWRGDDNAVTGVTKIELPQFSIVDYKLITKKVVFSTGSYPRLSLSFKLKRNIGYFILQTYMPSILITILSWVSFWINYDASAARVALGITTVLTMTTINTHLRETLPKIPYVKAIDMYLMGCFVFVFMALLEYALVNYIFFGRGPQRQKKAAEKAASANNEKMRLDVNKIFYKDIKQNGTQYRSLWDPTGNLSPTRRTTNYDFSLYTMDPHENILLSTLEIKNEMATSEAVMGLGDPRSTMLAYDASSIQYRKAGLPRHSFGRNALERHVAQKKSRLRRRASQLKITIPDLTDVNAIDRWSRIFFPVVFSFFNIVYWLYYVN
Chain of Gamma-aminobutyric acid receptor subunit alpha-1/alpha-2/beta-2/gamma-2 (P18507 whole entry): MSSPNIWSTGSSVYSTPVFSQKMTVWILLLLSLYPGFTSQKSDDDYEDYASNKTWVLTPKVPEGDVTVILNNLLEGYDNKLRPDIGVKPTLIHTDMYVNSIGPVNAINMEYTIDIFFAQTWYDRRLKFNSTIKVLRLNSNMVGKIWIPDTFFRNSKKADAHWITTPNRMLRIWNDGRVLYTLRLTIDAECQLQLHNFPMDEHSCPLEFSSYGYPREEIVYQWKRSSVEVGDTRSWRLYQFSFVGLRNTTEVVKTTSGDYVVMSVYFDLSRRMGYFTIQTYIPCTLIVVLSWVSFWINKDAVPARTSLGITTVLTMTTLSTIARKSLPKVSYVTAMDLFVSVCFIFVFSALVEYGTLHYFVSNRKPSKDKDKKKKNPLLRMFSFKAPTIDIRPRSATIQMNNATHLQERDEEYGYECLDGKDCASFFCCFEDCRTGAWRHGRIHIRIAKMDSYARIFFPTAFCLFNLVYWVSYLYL
Chain of Gamma-aminobutyric acid receptor subunit alpha-1/alpha-2/beta-2/gamma-2 (P47869 whole entry): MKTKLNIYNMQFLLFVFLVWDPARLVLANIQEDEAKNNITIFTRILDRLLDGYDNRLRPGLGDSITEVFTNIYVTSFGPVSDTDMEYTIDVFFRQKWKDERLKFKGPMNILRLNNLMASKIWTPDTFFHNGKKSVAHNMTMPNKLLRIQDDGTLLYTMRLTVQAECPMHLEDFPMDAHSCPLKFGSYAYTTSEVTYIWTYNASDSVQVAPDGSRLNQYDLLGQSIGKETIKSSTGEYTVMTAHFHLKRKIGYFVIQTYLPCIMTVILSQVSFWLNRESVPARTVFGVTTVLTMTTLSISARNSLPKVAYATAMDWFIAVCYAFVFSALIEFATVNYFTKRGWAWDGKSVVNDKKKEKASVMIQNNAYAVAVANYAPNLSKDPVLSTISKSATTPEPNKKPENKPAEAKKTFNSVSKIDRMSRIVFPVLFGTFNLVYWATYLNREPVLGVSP

[4] = biological target: Vascular endothelial growth factor receptor 2 (Homo sapiens, UniProt P35968); assay type: functional
Chain of Vascular endothelial growth factor receptor 2 (P35968 whole entry): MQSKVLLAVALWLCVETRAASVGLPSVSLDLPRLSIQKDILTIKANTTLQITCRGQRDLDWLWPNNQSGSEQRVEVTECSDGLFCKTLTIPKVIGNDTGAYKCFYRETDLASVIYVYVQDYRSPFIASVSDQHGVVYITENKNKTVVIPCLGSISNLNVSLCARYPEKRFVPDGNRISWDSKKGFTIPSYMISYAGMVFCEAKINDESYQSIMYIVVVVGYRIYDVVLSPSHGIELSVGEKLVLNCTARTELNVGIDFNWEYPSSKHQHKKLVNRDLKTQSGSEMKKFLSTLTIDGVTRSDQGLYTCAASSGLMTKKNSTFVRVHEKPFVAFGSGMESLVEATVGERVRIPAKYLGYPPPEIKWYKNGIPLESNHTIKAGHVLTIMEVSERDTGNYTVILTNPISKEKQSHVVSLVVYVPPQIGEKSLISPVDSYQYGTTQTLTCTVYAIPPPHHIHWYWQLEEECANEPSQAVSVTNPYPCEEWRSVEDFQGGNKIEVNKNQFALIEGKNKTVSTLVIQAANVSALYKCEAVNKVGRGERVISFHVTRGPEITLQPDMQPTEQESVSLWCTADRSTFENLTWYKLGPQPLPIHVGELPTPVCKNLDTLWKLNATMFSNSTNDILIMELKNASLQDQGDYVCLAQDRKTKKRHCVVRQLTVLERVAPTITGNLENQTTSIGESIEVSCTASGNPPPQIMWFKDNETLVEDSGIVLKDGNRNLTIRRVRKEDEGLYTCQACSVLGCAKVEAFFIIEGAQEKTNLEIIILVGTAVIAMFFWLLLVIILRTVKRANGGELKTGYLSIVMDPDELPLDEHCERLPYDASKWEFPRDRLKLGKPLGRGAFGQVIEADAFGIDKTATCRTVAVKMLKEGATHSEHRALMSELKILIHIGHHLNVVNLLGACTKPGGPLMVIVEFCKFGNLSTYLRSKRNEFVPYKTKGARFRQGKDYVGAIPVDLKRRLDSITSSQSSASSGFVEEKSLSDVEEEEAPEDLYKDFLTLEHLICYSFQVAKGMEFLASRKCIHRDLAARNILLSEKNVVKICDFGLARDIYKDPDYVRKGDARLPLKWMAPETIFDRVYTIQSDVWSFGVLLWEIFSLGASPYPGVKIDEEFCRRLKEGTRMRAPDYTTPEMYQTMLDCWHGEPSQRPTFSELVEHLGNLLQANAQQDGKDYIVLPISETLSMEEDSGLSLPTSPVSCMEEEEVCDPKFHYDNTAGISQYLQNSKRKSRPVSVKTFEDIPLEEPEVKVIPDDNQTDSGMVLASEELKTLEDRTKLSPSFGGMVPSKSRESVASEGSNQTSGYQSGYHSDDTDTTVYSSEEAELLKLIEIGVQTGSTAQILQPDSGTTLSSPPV

[5] = biological target: T3, Amine oxidase [flavin-containing] A (Homo sapiens, UniProt P21397); assay type: functional
T3 sequence (P21397 whole entry): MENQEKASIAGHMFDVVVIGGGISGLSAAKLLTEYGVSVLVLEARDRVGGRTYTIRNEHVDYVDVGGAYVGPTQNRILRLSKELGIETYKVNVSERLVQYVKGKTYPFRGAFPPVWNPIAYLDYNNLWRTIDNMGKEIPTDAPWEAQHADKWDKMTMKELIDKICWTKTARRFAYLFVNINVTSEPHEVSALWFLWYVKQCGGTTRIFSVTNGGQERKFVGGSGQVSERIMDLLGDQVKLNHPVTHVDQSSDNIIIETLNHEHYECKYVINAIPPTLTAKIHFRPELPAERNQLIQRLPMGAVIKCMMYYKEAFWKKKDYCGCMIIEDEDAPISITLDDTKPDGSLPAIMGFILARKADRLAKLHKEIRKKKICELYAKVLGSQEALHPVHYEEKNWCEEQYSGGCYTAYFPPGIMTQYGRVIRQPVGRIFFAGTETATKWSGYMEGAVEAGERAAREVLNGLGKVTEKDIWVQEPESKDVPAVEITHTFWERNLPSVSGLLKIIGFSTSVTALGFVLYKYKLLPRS

Progesterone receptor = biological target: T4, Progesterone receptor (Homo sapiens, UniProt P06401)
T4 sequence (P06401 whole entry): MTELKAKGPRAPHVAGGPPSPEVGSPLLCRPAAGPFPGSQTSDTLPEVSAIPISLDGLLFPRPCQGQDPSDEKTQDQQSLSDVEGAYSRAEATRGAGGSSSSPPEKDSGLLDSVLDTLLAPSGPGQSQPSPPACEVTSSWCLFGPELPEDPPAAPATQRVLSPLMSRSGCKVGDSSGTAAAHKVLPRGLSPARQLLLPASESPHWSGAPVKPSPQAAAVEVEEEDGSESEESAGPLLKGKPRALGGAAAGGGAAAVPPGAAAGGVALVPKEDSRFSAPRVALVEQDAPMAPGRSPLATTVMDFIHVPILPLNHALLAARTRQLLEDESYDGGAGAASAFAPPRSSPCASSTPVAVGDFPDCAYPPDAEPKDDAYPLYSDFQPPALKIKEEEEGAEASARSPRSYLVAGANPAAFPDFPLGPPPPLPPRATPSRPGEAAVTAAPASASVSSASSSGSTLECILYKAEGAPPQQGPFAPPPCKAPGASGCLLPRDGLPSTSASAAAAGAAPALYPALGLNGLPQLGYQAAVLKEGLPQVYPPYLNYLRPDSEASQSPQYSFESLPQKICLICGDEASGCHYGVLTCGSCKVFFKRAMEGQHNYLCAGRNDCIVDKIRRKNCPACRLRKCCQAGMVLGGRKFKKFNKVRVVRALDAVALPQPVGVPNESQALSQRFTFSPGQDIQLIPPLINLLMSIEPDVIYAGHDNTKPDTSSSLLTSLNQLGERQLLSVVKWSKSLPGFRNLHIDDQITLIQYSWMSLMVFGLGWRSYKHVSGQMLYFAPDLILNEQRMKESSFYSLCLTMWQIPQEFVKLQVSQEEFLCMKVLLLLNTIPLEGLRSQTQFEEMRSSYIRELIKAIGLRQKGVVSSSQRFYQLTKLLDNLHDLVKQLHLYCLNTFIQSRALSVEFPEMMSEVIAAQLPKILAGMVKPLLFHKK

[6] = biological target: Sodium-dependent dopamine transporter (Homo sapiens, UniProt Q01959)
Chain of Sodium-dependent dopamine transporter (Q01959 whole entry): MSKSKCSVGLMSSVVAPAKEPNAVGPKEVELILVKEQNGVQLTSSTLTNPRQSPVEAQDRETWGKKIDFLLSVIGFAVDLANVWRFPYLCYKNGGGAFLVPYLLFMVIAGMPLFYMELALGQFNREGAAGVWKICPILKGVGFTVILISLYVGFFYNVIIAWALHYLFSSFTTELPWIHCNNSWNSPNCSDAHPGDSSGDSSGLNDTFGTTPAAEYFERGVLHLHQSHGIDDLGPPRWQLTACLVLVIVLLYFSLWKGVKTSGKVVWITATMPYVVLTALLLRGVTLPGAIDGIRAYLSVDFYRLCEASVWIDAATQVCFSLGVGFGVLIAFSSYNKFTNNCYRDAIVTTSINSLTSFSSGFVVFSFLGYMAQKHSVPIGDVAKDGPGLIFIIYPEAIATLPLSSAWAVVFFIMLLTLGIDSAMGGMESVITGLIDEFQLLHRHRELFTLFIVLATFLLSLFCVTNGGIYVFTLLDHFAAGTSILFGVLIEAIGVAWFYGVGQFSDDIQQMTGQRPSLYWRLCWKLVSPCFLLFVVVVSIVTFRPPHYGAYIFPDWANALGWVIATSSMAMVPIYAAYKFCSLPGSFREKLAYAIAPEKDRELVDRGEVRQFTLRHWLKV
Note: assay procedure not described here.

Compound | AC50 [1] [µM] | AC50 [2] [µM] | AC50 (D(3) dopamine receptor) [µM] | AC50 (Prothrombin) [µM] | AC50 [3] [µM] | AC50 [4] [µM] | AC50 [5] [µM] | AC50 (Progesterone receptor) [µM] | AC50 [6] [µM]
CCOC(=O)c1ncn2c1CN(C)C(=O)c1cc(F)ccc1-2 [FLUMAZENIL] | > 30 | – | – | – | – | – | – | – | –
CCN(CC)CCCC(C)Nc1c2ccc(Cl)cc2nc2ccc(OC)cc12 (centres undefined) [QUINACRINE] | – | > 1 | 7.05 | > 30 | > 30 | > 30 | > 30 | > 10 | 18.4
